{"source": "patent US20230141603A1", "about": "“BENZODIAZEPINE DERIVATIVES AS GABA A GAMMA1 PAM” (Hoffmann-La Roche Inc., priority 2021, published 2023)"}
{"target": "T1, h-GABAA α2β2γ1 (Homo sapiens, UniProt P47869+Q8N1C3)", "T1 sequence (P47869 29-451)": "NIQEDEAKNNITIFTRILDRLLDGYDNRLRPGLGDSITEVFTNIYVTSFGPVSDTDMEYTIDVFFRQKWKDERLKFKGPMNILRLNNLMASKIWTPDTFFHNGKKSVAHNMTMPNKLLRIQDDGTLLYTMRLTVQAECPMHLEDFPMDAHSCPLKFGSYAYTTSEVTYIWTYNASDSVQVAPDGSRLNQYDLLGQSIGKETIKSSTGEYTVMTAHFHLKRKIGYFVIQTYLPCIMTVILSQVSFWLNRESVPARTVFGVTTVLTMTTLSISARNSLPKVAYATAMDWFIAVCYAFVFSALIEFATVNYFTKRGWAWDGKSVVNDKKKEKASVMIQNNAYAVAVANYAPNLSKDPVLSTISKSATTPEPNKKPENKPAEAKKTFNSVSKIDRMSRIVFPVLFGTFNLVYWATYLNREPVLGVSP", "T1 sequence (P47870 25-512 partner limits assumed)": "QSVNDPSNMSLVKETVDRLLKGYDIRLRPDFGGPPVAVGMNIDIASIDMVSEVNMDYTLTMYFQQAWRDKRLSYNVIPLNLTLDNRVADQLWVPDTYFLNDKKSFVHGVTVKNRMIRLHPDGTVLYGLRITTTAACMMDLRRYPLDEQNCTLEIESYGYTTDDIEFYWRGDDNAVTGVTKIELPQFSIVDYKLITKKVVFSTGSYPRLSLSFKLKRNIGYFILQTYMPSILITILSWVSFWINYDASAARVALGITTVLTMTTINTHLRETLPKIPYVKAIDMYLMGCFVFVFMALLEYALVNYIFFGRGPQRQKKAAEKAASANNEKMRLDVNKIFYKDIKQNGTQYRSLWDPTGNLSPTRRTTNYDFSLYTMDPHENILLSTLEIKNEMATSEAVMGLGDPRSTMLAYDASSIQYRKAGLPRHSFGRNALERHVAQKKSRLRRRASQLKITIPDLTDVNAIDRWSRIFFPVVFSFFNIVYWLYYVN", "T1 sequence (Q8N1C3 36-465)": "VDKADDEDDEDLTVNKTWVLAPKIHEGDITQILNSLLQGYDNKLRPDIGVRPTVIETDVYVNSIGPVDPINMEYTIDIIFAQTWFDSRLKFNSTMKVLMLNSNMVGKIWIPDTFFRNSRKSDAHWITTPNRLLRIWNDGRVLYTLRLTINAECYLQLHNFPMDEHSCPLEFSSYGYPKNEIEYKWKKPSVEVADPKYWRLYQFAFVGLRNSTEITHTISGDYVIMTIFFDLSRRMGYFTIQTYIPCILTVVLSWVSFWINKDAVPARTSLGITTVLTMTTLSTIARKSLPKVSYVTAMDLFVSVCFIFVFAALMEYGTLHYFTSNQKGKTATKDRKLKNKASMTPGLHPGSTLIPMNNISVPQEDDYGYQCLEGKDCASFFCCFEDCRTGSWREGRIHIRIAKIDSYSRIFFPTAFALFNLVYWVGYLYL", "assay": "Radioligand binding assay, [3H]RO7239181 competition, HEK293F membranes", "design": "signal peptide of human GABAA α5 subunit (Met1 to Ser31), replacing the α2 signal peptide (N); expressed in transfected cells; host or cells: HEK293F cells (ThermoFisher R79007), membranes", "units": {"Ki": "nM"}}
{"smiles": "Cc1nnc2n1-c1ccc(Br)c(Cl)c1C(c1c(F)cccc1Cl)=NC2", "note": "[Example 50, 8-bromo-7-chloro-6-(2-chloro-6-fluoro-phenyl)-1-methyl-4H-[1,2,4]triazolo[4,3-a][1,4]benzodiazepine]", "Ki": 4.7}
{"smiles": "Fc1cccnc1C1=NCc2nnc(-c3cccnn3)n2-c2ccc(Cl)c(Cl)c21", "note": "[Example 54, 7,8-dichloro-6-(3-fluoro-2-pyridyl)-1-pyridazin-3-yl-4H-[1,2,4]triazolo[4,3-a][1,4]benzodiazepine]", "Ki": 30.2}
{"smiles": "Fc1cccnc1C1=NCc2nnc(-c3ccncn3)n2-c2ccc(Cl)c(Cl)c21", "note": "[Example 55, 7,8-dichloro-6-(3-fluoro-2-pyridyl)-1-pyrimidin-4-yl-4H-[1,2,4]triazolo[4,3-a][1,4]benzodiazepine]", "Ki": 18.5}
{"smiles": "COc1ccc2c(c1Cl)C(c1c(F)cccc1F)=NCc1nnc(-c3cccnn3)n1-2", "note": "[Example 57, 7-chloro-6-(2,6-difluorophenyl)-8-methoxy-1-pyridazin-3-yl-4H-[1,2,4]triazolo[4,3-a][1,4]benzodiazepine]", "Ki": 57.9}
{"smiles": "Cn1cc(-c2nnc3n2-c2ccc(Cl)c(Cl)c2C(c2ncccc2F)=NC3)cn1", "note": "[Example 58, 7,8-dichloro-6-(3-fluoro-2-pyridyl)-1-(1-methylpyrazol-4-yl)-4H-[1,2,4]triazolo[4,3-a][1,4]benzodiazepine]", "Ki": 33.1}
{"smiles": "O=c1[nH]nc2n1-c1ccc(Cl)c(Cl)c1C(c1ncccc1F)=NC2", "note": "[Example 59, 7,8-dichloro-6-(3-fluoro-2-pyridyl)-2,4-dihydro-[1,2,4]triazolo[4,3-a][1,4]benzodiazepin-1-one]", "Ki": 26.3}
{"smiles": "Fc1cccnc1C1=NCc2nncn2-c2ccc(Cl)c(Cl)c21", "note": "[Example 60, 7,8-dichloro-6-(3-fluoro-2-pyridyl)-4H-[1,2,4]triazolo[4,3-a][1,4]benzodiazepine]", "Ki": 38.9}
{"smiles": "COc1ccc2c(c1Cl)C(c1c(F)cccc1F)=NCc1nnc(-c3ccncn3)n1-2", "note": "[Example 61, 7-chloro-6-(2,6-difluorophenyl)-8-methoxy-1-pyrimidin-4-yl-4H-[1,2,4]triazolo[4,3-a][1,4]benzodiazepine]", "Ki": 77.6}
{"smiles": "COc1ccc2c(c1Cl)C(c1c(F)cccc1F)=NCc1nnc(-c3cccnc3)n1-2", "note": "[Example 62, 7-chloro-6-(2,6-difluorophenyl)-8-methoxy-1-(3-pyridyl)-4H-[1,2,4]triazolo[4,3-a][1,4]benzodiazepine]", "Ki": 55.3}
{"smiles": "Fc1cccnc1C1=NCc2nnc(C3CC3)n2-c2ccc(Cl)c(Cl)c21", "note": "[Example 65, 7,8-dichloro-1-cyclopropyl-6-(3-fluoro-2-pyridyl)-4H-[1,2,4]triazolo[4,3-a][1,4]benzodiazepine]", "Ki": 64.9}
{"smiles": "Fc1cccnc1C1=NCc2nnc(-c3ccncn3)n2-c2ccc(C(F)(F)F)c(Cl)c21", "note": "[Example 69, 7-chloro-6-(3-fluoro-2-pyridyl)-1-pyrimidin-4-yl-8-(trifluoromethyl)-4H-[1,2,4]triazolo[4,3-a][1,4]benzodiazepine]", "Ki": 63.6}
{"smiles": "Cn1cc(-c2nnc3n2-c2ccc(C(F)(F)F)c(Cl)c2C(c2ncccc2F)=NC3)cn1", "note": "[Example 70, 7-chloro-6-(3-fluoro-2-pyridyl)-1-(1-methylpyrazol-4-yl)-8-(trifluoromethyl)-4H-[1,2,4]triazolo[4,3-a][1,4]benzodiazepine]", "Ki": 41.4}
{"smiles": "Cc1nnc2n1-c1ccc(Cl)c(Cl)c1C(c1ncccc1F)=NC2", "note": "[Example 71, 7,8-dichloro-6-(3-fluoro-2-pyridyl)-1-methyl-4H-[1,2,4]triazolo[4,3-a][1,4]benzodiazepine]", "Ki": 37.6}
{"smiles": "Fc1cccnc1C1=NCc2nnc(-c3cccnn3)n2-c2ccc(C(F)(F)F)c(Cl)c21", "note": "[Example 72, 7-chloro-6-(3-fluoro-2-pyridyl)-1-pyridazin-3-yl-8-(trifluoromethyl)-4H-[1,2,4]triazolo[4,3-a][1,4]benzodiazepine]", "Ki": 30.1}
{"smiles": "Fc1cccnc1C1=NCc2nnc(C3CC3)n2-c2ccc(Br)c(Cl)c21", "note": "[Example 77, 8-bromo-7-chloro-1-cyclopropyl-6-(3-fluoro-2-pyridyl)-4H-[1,2,4]triazolo[4,3-a][1,4]benzodiazepine]", "Ki": 19.6}
{"smiles": "Cc1nnc2n1-c1ccc(C(F)(F)F)c(Cl)c1C(c1ncccc1F)=NC2", "note": "[Example 78, 7-chloro-6-(3-fluoro-2-pyridyl)-1-methyl-8-(trifluoromethyl)-4H-[1,2,4]triazolo[4,3-a][1,4]benzodiazepine]", "Ki": 50.8}
{"smiles": "COc1ccc2c(c1Cl)C(c1c(F)cccc1F)=NCc1nnc(C3CC3)n1-2", "note": "[Example 79, 7-chloro-1-cyclopropyl-6-(2,6-difluorophenyl)-8-methoxy-4H-[1,2,4]triazolo[4,3-a][1,4]benzodiazepine]", "Ki": 51.2}
{"smiles": "COc1nnc2n1-c1ccc(Cl)c(Cl)c1C(c1c(F)cccc1F)=NC2", "note": "[Example 90, 7,8-dichloro-6-(2,6-difluorophenyl)-1-methoxy-4H-[1,2,4]triazolo[4,3-a][1,4]benzodiazepine]", "Ki": 5.8}
{"smiles": "CO[C@H]1C[C@H](c2nnc3n2-c2ccc(Cl)c(Cl)c2C(c2c(F)cccc2F)=NC3)C1", "note": "[Example 91, trans-7,8-dichloro-6-(2,6-difluorophenyl)-1-(3-methoxycyclobutyl)-4H-[1,2,4]triazolo[4,3-a][1,4]benzodiazepine]", "Ki": 36.3}
{"smiles": "Fc1cccc(F)c1C1=NCc2nnc(-c3cccnn3)n2-c2ccc(Br)c(Cl)c21", "note": "[Example 104, 8-bromo-7-chloro-6-(2,6-difluorophenyl)-1-pyridazin-3-yl-4H-[1,2,4]triazolo[4,3-a][1,4]benzodiazepine]", "Ki": 2.3}
{"smiles": "Cc1ncc2n1-c1ccc(Cl)cc1C(c1ccccc1F)=NC2", "note": "[Midazolam, reference compound]", "Ki": 738}
